Measurements published in patent EP4775203A1, “VANILLIC ACID DERIVATIVE COMPOUND, THERAPEUTIC AGENT COMPOSITION FOR ALZHEIMER'S DISEASE COMPRISING SAME, AND THERAPEUTIC AGENT COMPOSITION FOR NEUROINFLAMMATION” (Theranocure Co., Ltd., priority 2023, dated 2025).

What was measured:
BV2 cells [1] = assay: Nitric oxide (NO) secretion analysis (Griess reagent) after LPS treatment; format: cell-based, mouse; details: LPS 2 hours, then VD 12 hours; all tested concentrations (up to 100 µM); compared to LPS-only group
Experimental: This evaluation example was conducted to assess the effect of VD on nitric oxide (NO) secretion. Nitric oxides such as NO are inflammatory mediators that increase during inflammatory responses or infection and serve as important indicators of inflammation severity. By determining whether VD can inhibit NO secretion, the anti-inflammatory effect of VD was evaluated. After stabilizing BV2 cells, the cells were treated with LPS for 2 hours, followed by the addition of VD and incubation for 12 hours. The supernatant was collected from the cultured cells and centrifuged at 5,000 rpm for 2 minutes at 4°C. The analysis was performed using a Griess reagent kit, and the concentration of nitric oxide was calculated by measuring absorbance at 540 nm.

[2] = Cell viability assay (CCK-8); format: cell-based, mouse; details: mouse, bv2 cells, VD + additive propylene glycol (PG)
Experimental: (§1) The cytotoxicity of the synthesized VD was evaluated through a cell viability assay. BV2 cells (normal mouse brain-derived cells) were used. The cells were cultured in a growth medium containing DMEM supplemented with 10% FBS (fetal bovine serum). The medium further contained 1% antibiotic-antimycotic solution, 1% insulin-transferrin-selenium, and 40 ng/mL dexamethasone, and the cells were incubated at 37°C in a humidified atmosphere containing 5% CO2. […] After maintaining the cells under serum-free conditions for 24 hours, subsequent incubation for 48 hours was performed using RPMI 1640 medium containing 10% FBS and […]. Thereafter, fresh complete medium containing Cell Counting Kit-8 (CCK-8) solution was added to the plate and incubated for 3 hours. Cell viability was measured by absorbance at 450 nm using a SpectraMax® i3 (Molecular Devices, CA, U.S.).

BV2 cells [3] = assay: Cell viability assay (CCK-8); format: cell-based, mouse; details: VD alone
Experimental: as §1

NF-κB = assay: Western blot for pNF-κB in LPS-treated cells; format: cell-based; details: LPS 1000 ng/mL, 100 µM VD
Experimental: This experiment was conducted to evaluate how VD regulates the NF-κB pathway, which plays a critical role in inflammatory responses. NF-κB is a key transcription factor that regulates inflammatory responses, and when activated within cells, it promotes the expression of inflammatory cytokines. Therefore, inhibition of NF-κB activation may play an important role in suppressing inflammation. CREB acts upstream of the NF-κB pathway, and activation of CREB is associated with inhibition of the NF-κB pathway. Cells were treated with LPS (1000 ng/mL) to activate the NF-κB pathway and induce an inflammatory response, followed by treatment with VD at a concentration of 100 µM. A group treated with both VD and the additive (propylene glycol, PG) was also included for comparison. Western blot analysis was performed to examine the expression of pNF-κB, the activated form of NF-κB, and Lamin B was used as a control for nuclear protein quantification.

[4] = target: T1, dopamine receptor 1 (D1R) (Mus musculus, UniProt Q61616); assay: Protein-ligand interaction (CETSA); format: binding
T1 construct: endogenous in cells; BV2 inferred
T1 sequence (Q61616 whole entry): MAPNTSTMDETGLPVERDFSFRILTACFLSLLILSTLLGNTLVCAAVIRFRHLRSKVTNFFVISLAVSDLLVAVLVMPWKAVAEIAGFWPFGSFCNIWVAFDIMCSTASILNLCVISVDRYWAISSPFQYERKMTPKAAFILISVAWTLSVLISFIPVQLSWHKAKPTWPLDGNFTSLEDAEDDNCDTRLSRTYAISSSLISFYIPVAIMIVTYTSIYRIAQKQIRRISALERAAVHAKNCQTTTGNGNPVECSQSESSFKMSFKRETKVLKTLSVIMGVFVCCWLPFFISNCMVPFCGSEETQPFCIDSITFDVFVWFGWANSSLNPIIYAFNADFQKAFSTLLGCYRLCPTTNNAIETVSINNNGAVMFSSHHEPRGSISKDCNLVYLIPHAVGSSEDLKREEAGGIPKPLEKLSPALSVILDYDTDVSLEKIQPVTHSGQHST
Experimental: (§2) This experiment was conducted to identify the receptor targeted by VD. Dopamine receptors (D1-D5) are present on the membranes of neurons, microglia, and astrocytes. The study aimed to determine through which pathway VD exerts its anti-inflammatory effects. Since dopamine receptors are broadly classified into the D1-like and D2-like families, representative dopamine receptor 1 (D1R) and dopamine receptor 2 (D2R) were evaluated using CETSA.

[5] = target: T2, dopamine receptor 2 (D2R) (Mus musculus, UniProt P61168); assay: Protein-ligand interaction (CETSA); format: binding
T2 construct: endogenous in cells; BV2 inferred
T2 sequence (P61168 whole entry): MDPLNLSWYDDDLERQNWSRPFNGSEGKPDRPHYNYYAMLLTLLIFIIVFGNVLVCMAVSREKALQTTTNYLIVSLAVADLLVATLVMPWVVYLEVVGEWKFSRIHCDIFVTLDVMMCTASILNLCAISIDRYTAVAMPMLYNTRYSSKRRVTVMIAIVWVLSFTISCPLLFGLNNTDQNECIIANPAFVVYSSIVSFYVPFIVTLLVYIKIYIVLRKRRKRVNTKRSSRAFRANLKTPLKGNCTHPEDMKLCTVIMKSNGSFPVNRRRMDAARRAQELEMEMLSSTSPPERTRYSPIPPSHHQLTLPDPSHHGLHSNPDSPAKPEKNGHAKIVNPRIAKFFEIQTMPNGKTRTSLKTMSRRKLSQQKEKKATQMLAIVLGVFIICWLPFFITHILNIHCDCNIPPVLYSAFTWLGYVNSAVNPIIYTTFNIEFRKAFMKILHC
Experimental: as §2

TNF-α = assay: Western blot of pro-inflammatory factors in LPS-treated cells; format: cell-based; details: compared to LPS-only treated group
Experimental: (§3) This in vitro experiment was performed to evaluate the ability of VD to suppress inflammatory responses. After extracting proteins from treated cells, the expression levels of inflammatory factors such as IL-6, iNOS, NLRP3, and TNF-α were analyzed by Western blotting. β-actin was used as an internal control for protein quantification. […] Accordingly, it may be concluded that VD affects both inflammatory and pro-inflammatory factors.

iNOS = assay: as above; format: cell-based; details: compared to LPS-only treated group
Experimental: as §3

IL-6 = assay: as above; format: cell-based; details: compared to LPS-only treated group
Experimental: as §3

[6] = test system: Alzheimer's disease mouse model (5xFAD); assay: Western blot of hippocampus and cerebral cortex proteins after IV treatment; format: in vivo
Experimental: This evaluation example was conducted to assess the effect of VD (vanillic acid-dopamine derivative) on the expression of specific proteins when administered to a 12-month-old Alzheimer's disease mouse model (5xFAD).
A total of 13 twelve-month-old 5xFAD mice were used in this experiment. The experiment was divided into three groups: (1) a normal wild-type group, (2) a dementia-induced group administered saline (5xFAD + saline), and (3) a dementia-induced group administered VD (5xFAD + VD). Each group received intravenous (IV) injections of the respective substance six times over a total period of 20 days. After completion of the treatment, the brains were harvested from the mice, and hippocampal tissue was isolated for further analysis. Protein expression of specific factors was evaluated using the hippocampal tissue. To extract proteins, the tissue was homogenized in RIPA buffer and centrifuged at 13,000 rpm for 15 minutes at 4°C. The supernatant was collected, and protein concentration was measured using a BCA protein assay kit. Equal amounts of protein were loaded onto 8.5% SDS-PAGE gels and transferred to an Immobilon-P membrane. The membranes were blocked with 3% bovine serum albumin (BSA) in Tris-buffered saline containing 0.05% Tween-20 (TBS-T) for 3 hours at room temperature. Thereafter, diluted primary antibodies were incubated overnight at 4°C in 3% BSA. The membranes were washed three times and then incubated with secondary antibodies for 1 hour. Western blot bands were detected using PicoEPD Western Reagent and SuperSignal™ West Femto Maximum Sensitivity Substrate, and images were captured using a chemiluminescent western imaging system. The obtained images were analyzed using ImageJ software.
FIGS. 14 and 15 show Western blot results analyzing changes in protein expression in the hippocampus and cerebral cortex, respectively, after treatment with VD (vanillic acid-dopamine derivative). These experiments were conducted using Alzheimer's disease model mice (5xFAD), and the expression levels of various inflammatory and neurodegeneration-related proteins were compared to evaluate the effect of VD. Both FIGS. 14 and 15 were conducted in two independent sets, with the left panels showing the results of the first set and the right panels showing the results of the second set.
This figure quantitatively evaluates the anti-inflammatory and neuroprotective effects of VD in Alzheimer's disease model mice (5xFAD). For this purpose, VD was administered to dementia model mice at two doses, 2 mg/kg and 4 mg/kg. The inflammatory and neurodegeneration-related factors analyzed in this experiment were as follows. NLRP3 is a protein complex acting as an inflammatory factor that plays an important role in regulating immune responses and inducing inflammation. BACE-1 (Beta-site Amyloid Precursor Protein Cleaving Enzyme 1) is an enzyme that cleaves amyloid precursor protein (APP) to generate β-amyloid. β-amyloid is one of the primary causative substances of Alzheimer's disease, and its accumulation is considered a key pathological feature of the disease. IBA-1 is a marker of microglial activation, indicating activation of microglia, which play a crucial role in immune and inflammatory responses in the brain. GFAP is a marker of astrocyte activation, and increased GFAP expression indicates activation of astrocytes. When astrocytes and microglia are activated, they secrete pro-inflammatory cytokines, thereby promoting inflammatory responses.

[7] = test system: dementia mouse model (5xFAD); assay: Water maze experiment (cognitive function); format: in vivo
Text: Latency to Target represents the time required to reach the target platform. As dementia progresses, cognitive function declines, leading to increased latency.
Occupancy in Target Quadrant refers to the extent to which the mice reached or remained in the quadrant containing the target. […] Number of Target Crossings represents the number of times the mice crossed the location of the target platform.

NLRP3 = assay: Western blot of inflammatory factors in LPS-treated cells; format: cell-based; details: compared to LPS-only treated group
Experimental: as §3

CREB = assay: Western blot for CREB / pCREB in LPS-treated cells; format: cell-based; details: LPS 1000 ng/mL, 100 µM VD, with or without additive (PG)
Experimental: This experiment was performed to evaluate how VD regulates the CREB factor, which plays an important role in inflammatory signaling pathways. CREB (cAMP response element-binding protein) is a transcription factor that regulates various intracellular signaling pathways. When activated, CREB plays an important role in suppressing the NF-κB pathway. Since NF-κB is one of the major mediators of inflammatory responses, activation of CREB is closely associated with inflammation suppression. After inducing an inflammatory response in cells by treating them with LPS (1000 ng/mL), VD was subsequently administered at concentrations of 10 µM, 50 µM, and 100 µM. A group treated with both VD and the additive (propylene glycol, PG) was also included. Western blot analysis was then performed to examine the expression levels of CREB and its activated form, pCREB. β-actin was used as an internal control for protein quantification.

[8] = 2 mg/kg and 4 mg/kg, IV six times over 20 days

SMILES: COc1cc(C(=O)NCCc2ccc(O)c(O)c2)ccc1O [VD]
- NO secretion (BV2 cells [1]): lower NO secretion
- viability at 100 µM ([2]; 100 µM): 84.7%
- viability at 200 µM ([2]; 200 µM): 60.1%
- viability at 400 µM ([2]; 400 µM): 43.1%
- cell viability (cytotoxicity) (BV2 cells [3]; 0-100 µM): little to no cytotoxicity
- cell viability (cytotoxicity) (BV2 cells [3]; 200 µM or more): slight cytotoxicity
- activation of NF-κB (pNF-κB) (NF-κB): significantly reduced
- CETSA change in D1R [4]: a change was observed
- CETSA change in D2R [5]: no significant change
- intensity of TNF-α (TNF-α): same pattern as NLRP3
- intensity of iNOS (iNOS): same pattern as NLRP3
- intensity of IL-6 (IL-6): same pattern as NLRP3
- expression of inflammatory cytokines [6]: reduced
- expression of phosphorylated tau [6]: reduced
- expression of β-amyloid [6]: reduced
- expression of BACE-1 [6, 8]: suppressed
- expression of GFAP [6, 8]: suppressed
- expression of IBA-1 [6, 8]: suppressed
- expression of NLRP3 [6, 8]: suppressed
- Latency to Target ([7]; 4 mg/kg VD-treated group): most significant improvement
- Number of Target Crossings ([7]; 4 mg/kg group vs untreated dementia mice): notably higher
- Number of Target Crossings ([7]; VD-treated group vs untreated dementia mice): more frequently
- Occupancy in Target Quadrant ([7]; VD-treated groups, particularly 4 mg/kg, vs untreated dementia mice): higher occupancy rate
- Latency to Target ([7]; VD-treated vs untreated dementia mice): shorter
- intensity of NLRP3 (NLRP3): effectively reduced
- pCREB/CREB ratio (CREB): significant increase
